Results reported in patent US8227510B2, “Combine use of pterostilbene and quercetin for the production of cancer treatment medicaments” (Universitat de Valencia, priority 2004, dated 2012).
Marks after values point to notes of the source that are not given here.

Key:
B16M-F10 = assay: Growth of hepatic metastases of B16M-F10 in mice; assay type: in vivo; conditions: 20 mg/kg i.v. daily x10 days; for Volume of metastases: none 22 ± 4; for Density of metastases: none 27 ± 5
Description: (§1) Hepatic metastases were induced by i.v. inoculations (portal vein), in anesthetized mice (Nembutal, 50 mg/kg i.p.), of 4×10^5 viable B16M-F10 cells suspended in 0.2 ml of DMEM. The mice were sacrificed by cervical dislocation 10 days after inoculation. The livers were fixed by immersion for 24 hours at 22° C. in 10% formaldehyde in PBS (pH 7.4), and were subsequently embedded in paraffin. The density of metastases (average number of foci/100 mm^3 of liver detected in fifteen sections of 10×10 mm^2 per liver) and the volume of metastases (average percentage of liver volume occupied by metastases) were determined as described previously (22).
(§2) This methodology makes it possible for the effect of PTER and QUER to be studied in vivo. For this purpose, mice were inoculated with B16M-F10 control cells or B16M-F10/Tet-Bcl-2 which overexpressed Bcl-2. Both subgroups of cells were cultivated beforehand in the absence or in the presence of t-PTER and QUER. B16M-F10 cells were cultivated for 72 hours. t-RESV (12 μM), t-PTER (40 μM), and QUER (20 μM) were added at 6, 30 and 54 hours of culture time, and were present in each case for just 60 minutes. Then they were removed from the culture flasks by washing (3 times with PBS) and the medium was renewed. The levels of Bcl-2 in the B16M-F10 control cells and cells treated with Tet-Bcl-2 were 24±5 and 105±14 units/mg of protein, respectively (n=5 in each case, P<0.01). The number of adhering cells shown in the table was calculated at 60 minutes postinjection (no significant differences were found when the measurements were effected at 30, 120, 180, 240 or 360 minutes postinjection, data not shown). The number of intact cells was calculated at 6 hours postinjection. The experimental microscopy data in vivo are mean values±SD corresponding to 4-5 different experiments. The growth of metastases in the liver was evaluated as stated in the corresponding section of the description, and in this case the mice were treated daily (×10 days) with t-PTER and/or QUER (20 mg/kg of body weight) administered i.v. (the data are mean values±SD corresponding to 25 mice per group). A similar method and equal number of mice per group were used for evaluating the survival of the carrier animals. The test of significance relates, in all the groups, to comparison between cases with PTER and/or QUER and cases without additions (*P<0.05 and **P<0.01), and to comparison between the B16M-F10/Tet-Bcl-2 cells with the B16M-F10 control cells (^+P<0.05, ^++P<0.01). […] This is the first time that the combined administration in vivo of natural polyphenols has induced inhibition of metastatic growth of a highly malignant tumor and an increase in the survival of the carrier.

B16M-F10 cells = assay: In vivo microscopy: B16M-F10 cells adhering to the HSE and intact cells; set-up: species or system mice; conditions: for Intact cells: B16M-F10, 6 hours postinjection, none 83 ± 14; for Number of cells adhering to the HSE: B16M-F10 precultured with polyphenols, 60 minutes postinjection, none 45 ± 7
Description: as §1, §2

B16M-F10/Tet-Bcl-2 cells = assay: In vivo microscopy: B16M-F10/Tet-Bcl-2 cells adhering to the HSE and intact cells; set-up: species or system mice; conditions: for Intact cells: B16M-F10/Tet-Bcl-2, 6 hours postinjection, none 85 ± 13; for Number of cells adhering to the HSE: B16M-F10/Tet-Bcl-2 precultured with polyphenols, 60 minutes postinjection, none 42 ± 6
Description: as §1, §2

Bcl-2 [1] = assay: Intracellular levels of Bcl-2 in B16M-F10 cells (enzyme immunoassay); assay type: cell-based, mouse; conditions: t-PTER 40 μM, QUER 20 μM, 60 minutes at 6, 30 and 54 hours, none 35 ± 5
Text: (§3) The Tet-off gene expression system (Clontech, Palo Alto, Calif., USA) was used for inserting the mouse bcl-2 gene and transfecting the B16M-F10 cells, as described previously (26) and following the manufacturer's instructions. The protein Bcl-2 was quantified in the soluble cytosolic fraction by enzyme immunoassay (27) using a test based on a monoclonal antibody from Sigma (San Luis, Mo., USA) (a Bcl-2 unit was defined as the amount of Bcl-2 protein in 1000 non-transfected B16M-F10 cells).
(§4) This methodology makes it possible for the effect of PTER and QUER to be studied in vivo. For this purpose, mice were inoculated with B16M-F10 control cells or B16M-F10/Tet-Bcl-2 which overexpressed Bcl-2. […] The number of adhering cells shown in the table was calculated at 60 minutes postinjection (no significant differences were found when the measurements were effected at 30, 120, 180, 240 or 360 minutes postinjection, data not shown). The number of intact cells was calculated at 6 hours postinjection. […] The growth of metastases in the liver was evaluated as stated in the corresponding section of the description, and in this case the mice were treated daily (×10 days) with t-PTER and/or QUER (20 mg/kg of body weight) administered i.v. (the data are mean values±SD corresponding to 25 mice per group). […]

Bcl-2 [2] = assay: Intracellular levels of Bcl-2 in B16M-F10/Tet-Bcl-2 cells (enzyme immunoassay); assay type: cell-based, mouse; conditions: same exposure, none 160 ± 25
Text: as §3, §4

SMILES | Volume of metastases (B16M-F10) | Density of metastases (B16M-F10) | Intact cells (B16M-F10 cells) | Number of cells adhering to the HSE (B16M-F10 cells) | Intact cells (B16M-F10/Tet-Bcl-2 cells) | Number of cells adhering to the HSE (B16M-F10/Tet-Bcl-2 cells) | Intracellular levels of Bcl-2 before inoculation (Bcl-2 [1]) | Intracellular levels of Bcl-2 before inoculation (Bcl-2 [2])
COc1cc(/C=C/c2ccc(O)cc2)cc(OC)c1 [PTER, pterostilbene] | 14 ± 4** percentage of liver volume | 18 ± 4** number of foci/100 mm^3 | 85 ± 17 percentage of cells adhering t | 20 ± 5** average number per lobe | 91 ± 20 percentage of cells adhering t | 21 ± 4** average number per lobe | 21 ± 4** units/mg protein | 151 ± 18^++ units/mg protein
O=c1c(O)c(-c2ccc(O)c(O)c2)oc2cc(O)cc(O)c12 [QUER, quercetin] | 12 ± 3** percentage of liver volume | 15 ± 4** number of foci/100 mm^3 | 52 ± 8** percentage of cells adhering t | 46 ± 9 average number per lobe | 87 ± 13^++ percentage of cells adhering t | 40 ± 7 average number per lobe | 9 ± 3** units/mg protein | 125 ± 13*^++ units/mg protein
